In patent publication US8716284B2, “Adamantyl diamide derivatives and uses of same” (H. Lundbeck A/S, priority 2008, dated 2014) one finds Emax data, which are given here for 24 molecules.

This experiment addresses T1, rat metabotropic glutamate receptor 5 (mGluR5) (Rattus norvegicus, UniProt P31424).
T1 construct: expressed in transfected cells; host or cells: HEK 293
Description: Calcium mobilization assay (FLIPR) for negative or positive allosteric activity, HEK 293 cells. The class given is cell-based. The settings on record: HEK293, negative allosteric modulation, inhibition of EC80 glutamate response; read-out: FLIPR maximum inhibition. In short, it runs like this: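 HEK 293 cells stably expressing rat mGluR5, Fluo-4 loaded in HEPES-buffered HBSS pH 7.4 with 0.1% BSA and probenecid. Compound added with EC20 (potentiation) or EC80 (inhibition) glutamate; fluorescence read over 3 min at room temperature. Basal-subtracted maximum fluorescence change fitted to Hill equation.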

T1 sequence (P31424 21-1171 isoform P31424-2 limits assumed): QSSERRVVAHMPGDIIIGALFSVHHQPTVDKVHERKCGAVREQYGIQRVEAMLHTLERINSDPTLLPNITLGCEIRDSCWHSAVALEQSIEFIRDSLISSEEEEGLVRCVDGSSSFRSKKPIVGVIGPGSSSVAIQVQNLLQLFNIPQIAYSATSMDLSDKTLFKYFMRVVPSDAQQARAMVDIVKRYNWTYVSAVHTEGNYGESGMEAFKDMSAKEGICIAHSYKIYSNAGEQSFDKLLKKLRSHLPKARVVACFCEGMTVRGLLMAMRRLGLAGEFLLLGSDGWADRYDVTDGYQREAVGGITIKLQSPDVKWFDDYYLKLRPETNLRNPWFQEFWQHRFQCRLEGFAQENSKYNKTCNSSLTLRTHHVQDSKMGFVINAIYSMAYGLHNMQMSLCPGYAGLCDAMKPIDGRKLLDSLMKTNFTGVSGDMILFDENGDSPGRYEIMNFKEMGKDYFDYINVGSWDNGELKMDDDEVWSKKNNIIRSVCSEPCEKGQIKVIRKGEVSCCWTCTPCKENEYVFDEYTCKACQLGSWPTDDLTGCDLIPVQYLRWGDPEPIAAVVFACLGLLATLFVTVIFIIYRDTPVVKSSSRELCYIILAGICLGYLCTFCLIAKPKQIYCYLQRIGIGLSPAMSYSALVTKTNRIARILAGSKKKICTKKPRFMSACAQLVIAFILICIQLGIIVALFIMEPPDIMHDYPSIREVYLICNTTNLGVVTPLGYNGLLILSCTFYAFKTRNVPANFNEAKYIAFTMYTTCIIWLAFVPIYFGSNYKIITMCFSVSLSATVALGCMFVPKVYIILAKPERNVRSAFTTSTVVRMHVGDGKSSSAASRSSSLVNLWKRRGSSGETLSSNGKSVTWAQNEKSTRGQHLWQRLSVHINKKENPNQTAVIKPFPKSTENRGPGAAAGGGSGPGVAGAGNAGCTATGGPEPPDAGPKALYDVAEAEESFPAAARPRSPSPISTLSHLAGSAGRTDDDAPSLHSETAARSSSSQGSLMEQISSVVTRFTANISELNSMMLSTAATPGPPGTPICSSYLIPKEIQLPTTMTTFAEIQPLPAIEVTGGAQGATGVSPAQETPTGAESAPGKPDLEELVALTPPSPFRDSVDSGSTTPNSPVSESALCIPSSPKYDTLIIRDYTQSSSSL

As for `CCn1ccc(C(=O)NC23CC4CC(CC(NC(=O)c5cccc(C)n5)(C4)C2)C3)n1` [Example 42, 6-Methyl-pyridine-2-carboxylic acid {3-[(1-ethyl-1H-pyrazole-3-carbonyl)-amino]-adamantan-1-yl}-amide], the Emax was in the range of 63 to 99%. As for `COc1cccc(C(=O)NC23CC4CC(CC(NC(=O)c5cncc(C)n5)(C4)C2)C3)c1F` [Example 167, 6-Methyl-pyrazine-2-carboxylic acid [3-(2-fluoro-3-methoxy-benzoylamino)-adamantan-1-yl]-amide], the figure is 63 to 99%. As for `Cc1ccn2cc(C(=O)NC34CC5CC(CC(NC(=O)c6cccc(C)n6)(C5)C3)C4)nc2c1` [Example 56, 7-Methyl-imidazo[1,2-a]pyridine-2-carboxylic acid {3-[(6-methyl-pyridine-2-carbonyl)-amino]-adamantan-1-yl}-amide], the figure is 63 to 99%. As for `Cc1cccc(C(=O)NC23CC4CC(CC(NC(=O)c5cc(Br)ccn5)(C4)C2)C3)n1` [Example 138, 6-Methyl-pyridine-2-carboxylic acid {3-[(4-bromo-pyridine-2-carbonyl)-amino]-adamantan-1-yl}-amide], the figure is 70 to 99%. `Cc1cccc(C(=O)NC23CC4CC(C2)CC(NC(=O)c2nccs2)(C4)C3)n1` [Example 40, 6-Methyl-pyridine-2-carboxylic acid {3-[(thiazole-2-carbonyl)-amino]-adamantan-1-yl}-amide]: the Emax is 63 to 99%. As for `Cc1cncc(C(=O)NC23CC4CC(C2)CC(NC(=O)c2ncccn2)(C4)C3)n1` [Example 172, Pyrimidine-2-carboxylic acid {3-[(6-methyl-pyrazine-2-carbonyl)-amino]-adamantan-1-yl}-amide], the figure is 63 to 99%. Turning to `Cc1cncc(C(=O)NC23CC4CC(CC(NC(=O)c5ccc6ocnc6c5)(C4)C2)C3)n1` [Example 175, Benzoxazole-5-carboxylic acid {3-[(6-methyl-pyrazine-2-carbonyl)-amino]-adamantan-1-yl}-amide], the Emax lay within 63 to 99%. As for `Cc1cccc(C(=O)NC23CC4CC(C2)CC(NC(=O)c2nccc(C)n2)(C4)C3)n1` [Example 141, 4-Methyl-pyrimidine-2-carboxylic acid {3-[(6-methyl-pyridine-2-carbonyl)-amino]-adamantan-1-yl}-amide], the figure is 70 to 99%; as for `Cc1ccnc(C(=O)NC23CC4CC(CC(NC(=O)c5cnccn5)(C4)C2)C3)n1` [Example 189, 4-Methyl-pyrimidine-2-carboxylic acid {3-[(pyrazine-2-carbonyl)-amino]-adamantan-1-yl}-amide], 63 to 99%; as for `COCCN(C)c1cccc(C(=O)NC23CC4CC(CC(NC(=O)c5cccc(F)c5)(C4)C2)C3)n1` [Example 246, 6-[(2-Methoxy-ethyl)-methyl-amino]-pyridine-2-carboxylic acid [3-(3-fluoro-benzoylamino)-adamantan-1-yl]-amide], 63 to 99%.

Consider `Cc1ccc(C(=O)NC23CC4CC(C2)CC(NC(=O)c2cccc(C)n2)(C4)C3)nc1` [Example 130, 6-Methyl-pyridine-2-carboxylic acid {3-[(5-methyl-pyridine-2-carbonyl)-amino]-adamantan-1-yl}-amide], for which the Emax was 70 to 99%. As for `Cc1cccc(C(=O)NC23CC4CC(C2)CC(NC(=O)c2cccc(C(C)(C)O)n2)(C4)C3)n1` [Example 144, 6-Methyl-pyridine-2-carboxylic acid (3-{[6-(1-hydroxy-1-methyl-ethyl)-pyridine-2-carbonyl]-amino}-adamantan-1-yl)-amide], the Emax was 70 to 99%. As for `CC(=O)c1cccc(C(=O)NC23CC4CC(CC(NC(=O)c5cccc(C)n5)(C4)C2)C3)n1` [Example 142, 6-Methyl-pyridine-2-carboxylic acid {3-[(6-acetyl-pyridine-2-carbonyl)-amino]-adamantan-1-yl}-amide], the figure is 70 to 99%; as for `COc1cc(C(=O)NC23CC4CC(C2)CC(NC(=O)c2cncc(C)n2)(C4)C3)ccc1F` [Example 159, 6-Methyl-pyrazine-2-carboxylic acid [3-(4-fluoro-3-methoxy-benzoylamino)-adamantan-1-yl]-amide], 70 to 99%. As for `O=C(NC12CC3CC(C1)CC(NC(=O)c1ccnc(C(F)(F)F)n1)(C3)C2)c1cnccn1` [Example 190, 2-Trifluoromethyl-pyrimidine-4-carboxylic acid {3-[(pyrazine-2-carbonyl)-amino]-adamantan-1-yl}-amide], the figure is 63 to 99%; as for `CN(C)CCCNc1cccc(C(=O)NC23CC4CC(CC(NC(=O)c5cccc(F)c5)(C4)C2)C3)n1` [Example 247, 6-(3-Dimethylamino-propylamino)-pyridine-2-carboxylic acid [3-(3-fluoro-benzoylamino)-adamantan-1-yl]-amide], 63 to 99%; as for `COc1cccc(C(=O)NC23CC4CC(C2)CC(NC(=O)c2cncc(C)n2)(C4)C3)c1` [Example 146, 6-Methyl-pyrazine-2-carboxylic acid [3-(3-methoxy-benzoylamino)-adamantan-1-yl]-amide], 70 to 99%. As to `Cc1cccc(C(=O)NC23CC4CC(C2)CC(NC(=O)c2cccc(CO)n2)(C4)C3)n1` [Example 134, 6-Methyl-pyridine-2-carboxylic acid {3-[(6-hydroxymethylpyridine-2-carbonyl)-amino]-adamantan-1-yl}-amide], the Emax was 70 to 99%. With `O=C(NC12CC3CC(C1)CC(NC(=O)c1cccc(N4CCC[C@@H]4CO)n1)(C3)C2)c1ccccn1` [Example 229, 6-((R)-2-Hydroxymethyl-pyrrolidin-1-yl)-pyridine-2-carboxylic acid {3-[(pyridine-2-carbonyl)-amino]-adamantan-1-yl}-amide], the Emax was in the range of 63 to 99%.

As for `Cc1cnc(C(=O)NC23CC4CC(C2)CC(NC(=O)c2ccn(C)n2)(C4)C3)cn1` [Example 18, 5-Methyl-pyrazine-2-carboxylic acid {3-[(1-methyl-1H-pyrazole-3-carbonyl)-amino]-adamantan-1-yl}-amide], the Emax lay in the range of 63 to 99%. As for `COCCNc1cccc(C(=O)NC23CC4CC(CC(NC(=O)c5ccccn5)(C4)C2)C3)n1` [Example 224, 6-(2-Methoxy-ethylamino)-pyridine-2-carboxylic acid {3-[(pyridine-2-carbonyl)-amino]-adamantan-1-yl}-amide], the figure is 63 to 99%; as for `O=C(NC12CC3CC(C1)CC(NC(=O)c1cccc(N4CCOCC4)n1)(C3)C2)c1cccc(F)c1` [Example 215, 6-Morpholin-4-yl-pyridine-2-carboxylic acid [3-(3-fluoro-benzoylamino)-adamantan-1-yl]-amide], 63 to 99%.

Consider `Cc1cccc(C(=O)NC23CC4CC(C2)CC(NC(=O)c2ccc5cnccc5n2)(C4)C3)n1` [Example 123, [1,6]Naphthyridine-2-carboxylic acid {3-[(6-methyl-pyridine-2-carbonyl)-amino]-adamantan-1-yl}-amide], for which the Emax is 70 to 99%. As for `O=C(NC12CC3CC(C1)CC(NC(=O)c1cn4ccccc4n1)(C3)C2)c1cccc(F)c1` [Example 100, Imidazo[1,2-a]pyridine-2-carboxylic acid [3-(3-fluoro-benzoylamino)-adamantan-1-yl]-amide], the figure is 63 to 99%.
